In one assay the target is SOS1 (Homo sapiens (Human), UniProt Q07889). The experiment in a line: Ras-SOS interaction assay (HTRF), K-Ras G13D utilized. It is filed as binding. The settings on record: K-Ras G13D, read-out: SOS1 IC50.
Assay [1] deals with NCI-H1975 (ATCC CRL-5908) cell line comprising an EGFR T790M L858R double mutation. Briefly: EGFR-SOS cellular inhibition assay (CellTiter-Glo cell proliferation). It is filed as cell-based. To be noted: Homo sapiens, 120 h; NCI-H1975 cell proliferation, approximately 5 days; read-out: H1975 IC50.
Procedure: A CellTiter-Glo (CTG) luminescent based assay (Promega) is used to assess growth of the cells, as a measurement of the ability of the compounds herein to inhibit EGFR signaling in the cells. […] The day after plating, cells are treated with a dilution series (e.g., a 9 point 3-fold dilution series) of the compounds herein (e.g., approximately 125 μL final volume per well).

A value given as a limit tells only on which side of the number the result lay.

Sequence of SOS1 (Q07889 564-1049): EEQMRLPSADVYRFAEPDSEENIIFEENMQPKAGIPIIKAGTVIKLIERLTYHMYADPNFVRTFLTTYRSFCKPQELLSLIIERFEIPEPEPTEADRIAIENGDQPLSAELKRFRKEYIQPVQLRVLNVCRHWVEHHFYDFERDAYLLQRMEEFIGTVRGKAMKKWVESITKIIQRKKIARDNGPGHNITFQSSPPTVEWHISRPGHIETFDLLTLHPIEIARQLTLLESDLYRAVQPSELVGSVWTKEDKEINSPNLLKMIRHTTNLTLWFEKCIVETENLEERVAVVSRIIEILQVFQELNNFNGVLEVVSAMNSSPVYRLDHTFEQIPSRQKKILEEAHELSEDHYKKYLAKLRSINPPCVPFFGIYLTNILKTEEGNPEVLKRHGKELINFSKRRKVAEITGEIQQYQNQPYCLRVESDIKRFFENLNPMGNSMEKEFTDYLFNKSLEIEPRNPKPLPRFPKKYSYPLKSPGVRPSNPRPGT

In the case of `C[C@H]1Nc2ncnc3c2cc(C2CCS(=O)(=O)CC2)c(=O)n3CCCCNC(=O)[C@H](C)N2CCC(CC2)C(F)(F)c2cccc1c2` [Compound 85, (4R,13S)-6^6-(1,1-dioxidotetrahydro-2H-thiopyran-4-yl)-2,2-difluoro-4,13-dimethyl-6^7,6^8-dihydro-5,11-diaza-6(4,8)-pyrido[2,3-d]pyrimidina-1(4,1)-piperidina-3(1,3)-benzenacyclotridecaphane-6^7,12-dione], the IC50 is under 100 nM at SOS1 and under 1000 nM in assay [1].

As for `C[C@H]1Nc2ncnc3c2cc(C2CCS(=O)(=O)CC2)c(=O)n3CCCCC[C@H](O)CN2CCC(CC2)C(F)(F)c2cccc1c2` [Compound 86, (4R,12S)-6^6-(1,1-dioxidotetrahydro-2H-thiopyran-4-yl)-2,2-difluoro-12-hydroxy-4-methyl-6^7,6^8-dihydro-5-aza-6(4,8)-pyrido[2,3-d]pyrimidina-1(4,1)-piperidina-3(1,3)-benzenacyclotridecaphan-6^7-one], the IC50 at SOS1 was under 100 nM; in assay [1] it was under 1000 nM.

As for `C[C@H]1Nc2nnc(c3c2cc(C2CCS(=O)(=O)CC2)c(=O)n3C)OCCCCN2CCC(CC2)C(F)(F)c2cccc1c2F` [Compound 87, (R)-6^3-(1,1-dioxidotetrahydro-2H-thiopyran-4-yl)-3^2,2,2-trifluoro-6^1,4-dimethyl-6^1,6^2-dihydro-7-oxa-5-aza-6(5,8)-pyrido[2,3-d]pyridazina-1(4,1)-piperidina-3(1,3)-benzenacycloundecaphan-6^2-one], the IC50 on SOS1 was 100 to 5000 nM; in assay [1] it was under 1000 nM.

Consider `Cc1nc2c3cc(C4(C#N)CC4)c(=O)n(c3n1)CCCCCOCC(F)(F)c1cccc(c1F)[C@@H](C)N2` [Compound 88, 1-((3R)-4^2,5,5-trifluoro-1^2,3-dimethyl-1^7-oxo-1^7,1^8-dihydro-7-oxa-2-aza-1(4,8)-pyrido[2,3-d]pyrimidina-4(1,3)-benzenacyclododecaphane-1^6-yl)cyclopropane-1-carbonitrile], for which the values for the IC50 (on SOS1; in assay [1]) were 100 to 5000 nM and over 10000 nM, respectively.

Consider `C[C@H]1Nc2ncnc3c2cc(C2(C#N)CC2)c(=O)n3CCC/C=C/CN2CCC(CC2)CC(F)(F)c2cccc1c2F` [Compound 89, 1-((3R,E)-4^2,5,5-trifluoro-3-methyl-1^7-oxo-1^7,1^8-dihydro-2-aza-1(4,8)-pyrido[2,3-d]pyrimidina-7(4,1)-piperidina-4(1,3)-benzenacyclotridecaphan-9-en-1^6-yl)cyclopropane-1-carbonitrile], for which the IC50 on SOS1 was under 100 nM; in assay [1] it was under 1000 nM.

Regarding `C[C@H]1Nc2ncnc3c2cc(C2CCS(=O)(=O)CC2)c(=O)n3CCCCCCN2CC(CCC(F)(F)c3cccc1c3F)C2` [Compound 90, (3R)-1^6-(1,1-dioxidotetrahydro-2H-thiopyran-4-yl)-4^2,5,5-trifluoro-3-methyl-1^7,1^8-dihydro-2-aza-1(4,8)-pyrido[2,3-d]pyrimidina-8(3,1)-azetidina-4(1,3)-benzenacyclotetradecaphan-1^7-one], the IC50 on SOS1 was under 100 nM; in assay [1], under 1000 nM.

`C[C@H]1Nc2ncnc3c2cc(C2CCS(=O)(=O)CC2)c(=O)n3CCCNC(=O)CCN2CCC(CC2)C(F)(F)c2cccc1c2` [Compound 91, (4R)-6^6-(1,1-dioxidotetrahydro-2H-thiopyran-4-yl)-2,2-difluoro-4-methyl-6^7,6^8-dihydro-5,10-diaza-6(4,8)-pyrido[2,3-d]pyrimidina-1(4,1)-piperidina-3(1,3)-benzenacyclotridecaphane-6^7,11-dione]: the IC50 at SOS1 is under 100 nM; in assay [1], under 1000 nM.

Regarding `C[C@H]1Nc2ncnc3c2cc(C2CCS(=O)(=O)CC2)c(=O)n3CC/C=C\CC(C)(C)CN2CCC(CC2)C(F)(F)c2cccc1c2` [Compound 92, (4R,Z)-6^6-(1,1-dioxidotetrahydro-2H-thiopyran-4-yl)-2,2-difluoro-4,12,12-trimethyl-6^7,6^8-dihydro-5-aza-6(4,8)-pyrido[2,3-d]pyrimidina-1(4,1)-piperidina-3(1,3)-benzenacyclotridecaphan-9-en-6^7-one], the IC50 was under 100 nM at SOS1 and under 1000 nM in assay [1].

With `C[C@H]1Nc2ncnc3c2cc(C2(C#N)CC2)c(=O)n3CCCCn2cc(nn2)CN2CCC(CC2)C(F)(F)c2cccc1c2` [Compound 94, 1-((6R,Z)-4,4-difluoro-6-methyl-8^7-oxo-8^7,8^8-dihydro-1^1H-7-aza-8(4,8)-pyrido[2,3-d]pyrimidina-3(1,4)-piperidina-1(4,1)-triazola-5(1,3)-benzenacyclododecaphane-8^6-yl)cyclopropane-1-carbonitrile], the IC50 on SOS1 is under 100 nM; in assay [1], under 1000 nM.

Consider `C[C@H]1Nc2ncnc3c2cc(C2(C#N)CC2)c(=O)n3CCCn2cc(nn2)CN2CCC(CC2)C(F)(F)c2cccc1c2` [Compound 95, 1-((6R,Z)-4,4-difluoro-6-methyl-8^7-oxo-8^7,8^8-dihydro-11H-7-aza-8(4,8)-pyrido[2,3-d]pyrimidina-3(1,4)-piperidina-1(4,1)-triazola-5(1,3)-benzenacycloundecaphane-8^6-yl)cyclopropane-1-carbonitrile], for which the IC50 at SOS1 is under 100 nM; in assay [1], under 1000 nM.

With `CC1C/C=C\CCCN2CCC(CC2)C(F)(F)c2cccc(c2F)[C@@H](C)Nc2ncnc3c2cc(C2(C#N)CC2)c(=O)n31` (stereo partly drawn) [Compound 97, 1-((4R,Z)-3^2,2,2-trifluoro-4,7-dimethyl-6^7-oxo-6^7,6^8-dihydro-5-aza-6(4,8)-pyrido[2,3-d]pyrimidina-1(4,1)-piperidina-3(1,3)-benzenacyclotridecaphan-9-en-6^6-yl)cyclopropane-1-carbonitrile], the IC50 is under 100 nM at SOS1 and under 1000 nM in assay [1].

`C[C@H]1Nc2ncnc3c2cc(C2(C#N)CC2)c(=O)n3CC(=O)NCCC[C@H](C)N2CCC(CC2)C(F)(F)c2cccc1c2F` [Compound 98, 1-((4R,13S)-3^2,2,2-trifluoro-4,13-dimethyl-6^7,8-dioxo-6^7,6^8-dihydro-5,9-diaza-6(4,8)-pyrido[2,3-d]pyrimidina-1(4,1)-piperidina-3(1,3)-benzenacyclotridecaphane-6^6-yl)cyclopropane-1-carbonitrile]: the IC50 is under 100 nM on SOS1 and under 1000 nM in assay [1].

`C[C@H]1Nc2ncnc3c2cc(C2(C#N)CC2)c(=O)n3CCCCCCN2CCC(CC2)C(F)(F)c2cccc1c2` [Compound 104, 1-((4R)-2,2-difluoro-4-methyl-6^7-oxo-6^7,6^8-dihydro-5-aza-6(4,8)-pyrido[2,3-d]pyrimidina-1(4,1)-piperidina-3(1,3)-benzenacyclododecaphane-6^6-yl)cyclopropane-1-carbonitrile]: the figures for the IC50 (on SOS1; in assay [1]) were under 100 nM and under 1000 nM, respectively.

As for `Cc1nc2c3cc(C4(C#N)CC4)c(=O)n(c3n1)CCCC/C=C\COCC(F)(F)c1cccc(c1F)[C@@H](C)N2` [Compound 105, 1-((3R,Z)-4^2,5,5-trifluoro-1^2,3-dimethyl-1^7-oxo-1^7,1^8-dihydro-7-oxa-2-aza-1(4,8)-pyrido[2,3-d]pyrimidina-4(1,3)-benzenacyclotetradecaphan-9-en-1^6-yl)cyclopropane-1-carbonitrile], the IC50 was under 100 nM at SOS1 and under 1000 nM in assay [1].

Take `C[C@@H]1C(=O)NCCCCn2c(=O)c(C3CCS(=O)(=O)CC3)cc3c(ncnc32)N[C@H](C)c2cccc(c2)C(F)(F)C2CCN1CC2` [Compound 106, (4R,13R)-6^6-(1,1-dioxidotetrahydro-2H-thiopyran-4-yl)-2,2-difluoro-4,13-dimethyl-6^7,6^8-dihydro-5,11-diaza-6(4,8)-pyrido[2,3-d]pyrimidina-1(4,1)-piperidina-3(1,3)-benzenacyclotridecaphane-6^7,12-dione]: the values for the IC50 (on SOS1; in assay [1]) were under 100 nM and under 1000 nM, respectively.

Take `CC1C/C=C\CCn2c(=O)c(C3CCS(=O)(=O)CC3)cc3c(ncnc32)N[C@H](C)c2cccc(c2F)C(F)(F)C2CCN(CC2)C1` (stereo partly drawn) [Compound 107, (4R,Z)-6^6-(1,1-dioxidotetrahydro-2H-thiopyran-4-yl)-3^2,2,2-trifluoro-4,12-dimethyl-6^7,6^8-dihydro-5-aza-6(4,8)-pyrido[2,3-d]pyrimidina-1(4,1)-piperidina-3(1,3)-benzenacyclotridecaphan-9-en-6^7-one]: the IC50 on SOS1 is under 100 nM; in assay [1], under 1000 nM.

`C[C@H]1Nc2ncnc3c2cc(C2CCS(=O)(=O)CC2)c(=O)n3CCCCn2cc(nn2)CN2CCC(CC2)C(F)(F)c2cccc1c2F` [Compound 108, (6R,Z)-8^6-(1,1-dioxidotetrahydro-2H-thiopyran-4-yl)-5^2,4,4-trifluoro-6-methyl-8^7,8^8-dihydro-11H-7-aza-8(4,8)-pyrido[2,3-d]pyrimidina-3(1,4)-piperidina-1(4,1)-triazola-5(1,3)-benzenacyclododecaphan-8^7-one]: the IC50 was under 100 nM on SOS1 and under 1000 nM in assay [1].

Turning to `Cc1nc2c3cc(C4(C#N)CC4)c(=O)n(c3n1)CCCCC/C=C\COCC(F)(F)c1cccc(c1F)[C@@H](C)N2` [Compound 109, 1-((3R,Z)-4^2,5,5-trifluoro-1^2,3-dimethyl-1^7-oxo-1^7,1^8-dihydro-7-oxa-2-aza-1(4,8)-pyrido[2,3-d]pyrimidina-4(1,3)-benzenacyclopentadecaphan-9-en-1^6-yl)cyclopropane-1-carbonitrile], the IC50 is under 100 nM on SOS1 and under 1000 nM in assay [1].

Consider `C[C@H]1Nc2ncnc3c2cc(C2CCS(=O)(=O)CC2)c(=O)n3CCCCCC(C)(O)CN2CCC(CC2)C(F)(F)c2cccc1c2` (stereo partly drawn) [Compound 110, (4R)-6^6-(1,1-dioxidotetrahydro-2H-thiopyran-4-yl)-2,2-difluoro-12-hydroxy-4,12-dimethyl-6^7,6^8-dihydro-5-aza-6(4,8)-pyrido[2,3-d]pyrimidina-1(4,1)-piperidina-3(1,3)-benzenacyclotridecaphan-6^7-one], for which the IC50 at SOS1 is under 100 nM; in assay [1], under 1000 nM.
